Reference: patent US12649750B2, “Macrocyclic compounds, compositions, and methods of using thereof” (Sionna Therapeutics Inc., priority 2022, dated 2026)

Experiments:
[1] = target: T1, NBD1 (Homo sapiens, UniProt P13569); assay: Aggregation analysis using differential static light scattering (DSLS), thermal stability of NBD1 (ΔTagg); type: binding; settings: ΔTagg versus DMSO control, NBD1 0.2 mg/ml
T1 construct: Purified recombinant NBD1 was produced using previously described methods; made in house
T1 sequence (P13569 423-646 limits assumed): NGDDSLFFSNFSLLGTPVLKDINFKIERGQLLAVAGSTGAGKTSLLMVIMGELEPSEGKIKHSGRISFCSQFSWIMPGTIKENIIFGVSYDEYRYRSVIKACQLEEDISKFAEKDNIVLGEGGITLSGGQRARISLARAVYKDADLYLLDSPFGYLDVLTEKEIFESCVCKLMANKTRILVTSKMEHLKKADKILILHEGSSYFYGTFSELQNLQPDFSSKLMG
Outline: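 Read-out is ΔTagg: the aggregation temperature, taken at the inflection of the light-scattering curve, less the average of DMSO control wells. Recombinant NBD1 (0.2 mg/ml, pH7.6 buffer containing 2 mM ATP) with test compound was heated at 1° C. per minute up to 70° C.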

[2] = target: T2, CFTR (Homo sapiens, UniProt P13569, DEL508-508); assay: TECC24 AUC fold over DMSO @10 μM, CFTR-mediated transepithelial chloride transport in CF-HBE cells; type: cell-based; settings: test agent AUC divided by DMSO vehicle AUC, primary CF-HBE cells, ΔF508 homozygous donor, 48 hours incubation
T2 construct: Primary human bronchial epithelial cells from a ΔF508 homozygous CF donor; host or cells: primary human bronchial epithelial cells (CF-HBE), ΔF508 homozygous donor
T2 sequence (P13569 with tags, fused parts or gaps DEL508-508): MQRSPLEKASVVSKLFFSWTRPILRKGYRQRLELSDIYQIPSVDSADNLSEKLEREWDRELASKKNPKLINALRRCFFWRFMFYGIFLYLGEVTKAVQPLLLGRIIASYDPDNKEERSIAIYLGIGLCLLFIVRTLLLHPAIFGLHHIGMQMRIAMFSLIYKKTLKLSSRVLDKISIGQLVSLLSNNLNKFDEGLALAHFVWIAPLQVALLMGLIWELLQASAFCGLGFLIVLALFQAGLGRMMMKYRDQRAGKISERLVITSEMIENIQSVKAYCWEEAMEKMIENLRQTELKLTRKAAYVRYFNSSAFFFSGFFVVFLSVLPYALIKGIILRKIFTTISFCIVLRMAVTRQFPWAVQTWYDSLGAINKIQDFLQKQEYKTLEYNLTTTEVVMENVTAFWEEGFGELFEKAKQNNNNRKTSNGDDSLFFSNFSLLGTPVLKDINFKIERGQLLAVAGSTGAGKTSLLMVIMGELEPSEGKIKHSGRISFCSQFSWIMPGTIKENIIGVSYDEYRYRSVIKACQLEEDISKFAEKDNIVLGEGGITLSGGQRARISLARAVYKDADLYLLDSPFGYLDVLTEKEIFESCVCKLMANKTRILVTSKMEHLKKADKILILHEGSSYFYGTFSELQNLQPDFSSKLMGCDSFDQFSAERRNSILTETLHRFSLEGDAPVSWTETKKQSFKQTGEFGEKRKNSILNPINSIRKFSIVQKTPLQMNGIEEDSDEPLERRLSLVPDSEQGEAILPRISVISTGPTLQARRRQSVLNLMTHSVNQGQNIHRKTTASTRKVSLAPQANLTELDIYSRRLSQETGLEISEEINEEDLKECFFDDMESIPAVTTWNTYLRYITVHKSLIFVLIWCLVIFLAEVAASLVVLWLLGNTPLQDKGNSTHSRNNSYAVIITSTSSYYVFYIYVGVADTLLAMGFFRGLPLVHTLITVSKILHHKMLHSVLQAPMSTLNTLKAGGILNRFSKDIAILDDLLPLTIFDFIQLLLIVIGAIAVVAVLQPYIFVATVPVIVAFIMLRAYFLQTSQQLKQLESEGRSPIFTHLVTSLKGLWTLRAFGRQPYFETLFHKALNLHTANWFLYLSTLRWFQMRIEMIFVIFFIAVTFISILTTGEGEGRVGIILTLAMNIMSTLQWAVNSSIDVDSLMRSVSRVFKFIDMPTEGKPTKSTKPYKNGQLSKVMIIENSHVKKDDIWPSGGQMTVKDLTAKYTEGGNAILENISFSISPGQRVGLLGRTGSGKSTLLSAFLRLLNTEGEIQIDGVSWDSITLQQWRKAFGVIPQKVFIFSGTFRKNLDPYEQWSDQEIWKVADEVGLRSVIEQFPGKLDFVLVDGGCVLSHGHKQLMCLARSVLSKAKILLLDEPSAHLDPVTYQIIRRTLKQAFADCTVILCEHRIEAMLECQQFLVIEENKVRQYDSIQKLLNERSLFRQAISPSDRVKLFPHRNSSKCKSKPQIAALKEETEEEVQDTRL
Outline: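 Value is ratio of test-agent to DMSO AUC of equivalent transepithelial Cl− current, integrated from forskolin (10 μM) stimulation to CFTR inhibitor-172 (20 μM) block, with benzamil 10 μM present. CF-HBE (ΔF508/ΔF508) cultures had 48 h compound exposure at 10 μM, 36.5° C before recording.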

COCC(Cc1cccc(C2(C)CCCC(C)(C)CS(=O)(=O)CCc3c(c(F)cc4[nH]ccc34)Oc3ccc(F)c(c3)-c3nc2nn3C)c1)C(=O)O (single isomer, unassigned) [Compound 153B, 2-[[3-(22,28-difluoro-3,6,10,10-tetramethyl-12,12-dioxo-24-oxa-12λ6-thia-3,4,19,30-tetrazapentacyclo[23.3.1.12,5.015,23.016,20]triaconta-1(29),2(30),4,15,17,20,22,25,27-nonaen-6-yl)phenyl]methyl]-3-methoxy-propanoic Acid]
DSLS 3D (100 μM ΔT) [1]: A (an ΔTagg value less than or equal to 5 °C is marked “A”) | TECC (AUC, 10 μM) [2]: C (a value between 20 and 80 is marked “C”)

COCC(Cc1cccc(C2(C)CCCC(C)(C)CS(=O)(=O)CCc3c(c(F)cc4[nH]ccc34)Oc3ccc(F)c(c3)-c3nc2nn3C)c1)C(=O)O (single isomer, unassigned) [Compound 153C, 2-[[3-(22,28-difluoro-3,6,10,10-tetramethyl-12,12-dioxo-24-oxa-12λ6-thia-3,4,19,30-tetrazapentacyclo[23.3.1.12,5.015,23.016,20]triaconta-1(29),2(30),4,15,17,20,22,25,27-nonaen-6-yl)phenyl]methyl]-3-methoxy-propanoic Acid]
DSLS 3D (100 μM ΔT) [1]: A (an ΔTagg value less than or equal to 5 °C is marked “A”) | TECC (AUC, 10 μM) [2]: A (a TECC value less than 12 is marked “A”)

C[C@H](Cc1cccc(C2(C)CCCC(C)(C)CS(=O)(=O)CCc3c(c(F)cc4[nH]ccc34)Oc3ccc(F)c(c3)-c3nc2c[nH]3)c1)C(=O)O (single isomer, unassigned) [Compound 157A]
DSLS 3D (100 μM ΔT) [1]: A (an ΔTagg value less than or equal to 5 °C is marked “A”) | TECC (AUC, 10 μM) [2]: A (a TECC value less than 12 is marked “A”)

C[C@H](Cc1cccc(C2(C)CCCC(C)(C)CS(=O)(=O)CCc3c(c(F)cc4[nH]ccc34)Oc3ccc(F)c(c3)-c3nc2c[nH]3)c1)C(=O)O (single isomer, unassigned) [Compound 157B]
DSLS 3D (100 μM ΔT) [1]: C (a value greater than 10 °C and less than or equal to 25 °C is marked “C”) | TECC (AUC, 10 μM) [2]: A (a TECC value less than 12 is marked “A”)

C[C@@H](Cc1cccc(C2(C)CCCC(C)(C)CS(=O)(=O)CCc3c(c(F)cc4[nH]ccc34)Oc3ccc(F)c(c3)-c3nc2nn3C)c1)C(N)=O (single isomer, unassigned) [Compound 158]
DSLS 3D (100 μM ΔT) [1]: C (a value greater than 10 °C and less than or equal to 25 °C is marked “C”) | TECC (AUC, 10 μM) [2]: A (a TECC value less than 12 is marked “A”)

COCCOCCOCCOC(=O)[C@@H](C)Cc1cccc(C2(C)CCCC(C)(C)CS(=O)(=O)CCc3c(c(F)cc4[nH]ccc34)Oc3ccc(F)c(c3)-c3nc2nn3C)c1 (single isomer, unassigned) [Compound 165]
DSLS 3D (100 μM ΔT) [1]: B (a value above 5 °C and less than or equal to 10 °C is marked “B”) | TECC (AUC, 10 μM) [2]: C (a value between 20 and 80 is marked “C”)

C/C(=C\c1cccc(C2(C)CCCC(C)(C)CS(=O)(=O)CCc3c(c(F)cc4[nH]ccc34)Cc3ccc(F)c(c3)-c3nc2nn3C)c1)C(=O)O (single isomer, unassigned) [Compound 166A, (E)-3-[3-(22,28-difluoro-3,6,10,10-tetramethyl-12,12-dioxo-12λ6-thia-3,4,19,30-tetrazapentacyclo-[23.3.1.12,5.015,23.016,20]triaconta-1(29),2(30),4,15,17,20,22,25,27-nonaen-6-yl)phenyl]-2-methyl-prop-2-enoic Acid]
DSLS 3D (100 μM ΔT) [1]: C (a value greater than 10 °C and less than or equal to 25 °C is marked “C”) | TECC (AUC, 10 μM) [2]: B (a value between 12-20 is marked “B”)

C/C(=C\c1cccc(C2(C)CCCC(C)(C)CS(=O)(=O)CCc3c(c(F)cc4[nH]ccc34)Cc3ccc(F)c(c3)-c3nc2nn3C)c1)C(=O)O (single isomer, unassigned) [Compound 166B, (E)-3-[3-(22,28-difluoro-3,6,10,10-tetramethyl-12,12-dioxo-12λ6-thia-3,4,19,30-tetrazapentacyclo-[23.3.1.12,5.015,23.016,20]triaconta-1(29),2(30),4,15,17,20,22,25,27-nonaen-6-yl)phenyl]-2-methyl-prop-2-enoic Acid]
DSLS 3D (100 μM ΔT) [1]: A (an ΔTagg value less than or equal to 5 °C is marked “A”) | TECC (AUC, 10 μM) [2]: A (a TECC value less than 12 is marked “A”)

C[C@H](Cc1cccc(C2(C)CCCC(C)(C)CS(=O)(=O)CCc3c(c(F)cc4[nH]ccc34)Cc3ccc(F)c(c3)-c3nc2nn3C)c1)C(=O)O (single isomer, unassigned) [Compound 169A]
DSLS 3D (100 μM ΔT) [1]: C (a value greater than 10 °C and less than or equal to 25 °C is marked “C”) | TECC (AUC, 10 μM) [2]: A (a TECC value less than 12 is marked “A”)

C[C@H](Cc1cccc(C2(C)CCCC(C)(C)CS(=O)(=O)CCc3c(c(F)cc4[nH]ccc34)Cc3ccc(F)c(c3)-c3nc2nn3C)c1)C(=O)O (single isomer, unassigned) [Compound 169B]
DSLS 3D (100 μM ΔT) [1]: A (an ΔTagg value less than or equal to 5 °C is marked “A”) | TECC (AUC, 10 μM) [2]: A (a TECC value less than 12 is marked “A”)

CC1(C)CCCC(C)(c2cccc(CC3(C(=O)O)CC3)c2)c2c[nH]c(n2)-c2cc(ccc2F)Oc2c(F)cc3[nH]ccc3c2CCS(=O)(=O)C1 (single isomer, unassigned) [Compound 171A, 1-[[3-(22,28-difluoro-6,10,10-trimethyl-12,12-dioxo-24-oxa-12λ6-thia-3,19,30-triazapentacyclo[23.3.1.12,5.015,23.016,20]triaconta-1(29),2(30),4,15,17,20,22,25,27-nonaen-6-yl)phenyl]methyl]cyclopropanecarboxylic Acid]
DSLS 3D (100 μM ΔT) [1]: A (an ΔTagg value less than or equal to 5 °C is marked “A”) | TECC (AUC, 10 μM) [2]: A (a TECC value less than 12 is marked “A”)

CC1(C)CCCC(C)(c2cccc(CC3(C(=O)O)CC3)c2)c2c[nH]c(n2)-c2cc(ccc2F)Oc2c(F)cc3[nH]ccc3c2CCS(=O)(=O)C1 (single isomer, unassigned) [Compound 171B, 1-[[3-(22,28-difluoro-6,10,10-trimethyl-12,12-dioxo-24-oxa-12λ6-thia-3,19,30-triazapentacyclo[23.3.1.12,5.015,23.016,20]triaconta-1(29),2(30),4,15,17,20,22,25,27-nonaen-6-yl)phenyl]methyl]cyclopropanecarboxylic Acid]
DSLS 3D (100 μM ΔT) [1]: C (a value greater than 10 °C and less than or equal to 25 °C is marked “C”) | TECC (AUC, 10 μM) [2]: A (a TECC value less than 12 is marked “A”)

C[C@@H](Cc1cccc(C2(C)CCCC(C)(C)CS(=O)(=O)CCc3c(c(F)cc4[nH]ccc34)[S+]([O-])c3ccc(F)c(c3)-c3nc2nn3C)n1)C(=O)O (single isomer, unassigned) [Compound 179A]
DSLS 3D (100 μM ΔT) [1]: B (a value above 5 °C and less than or equal to 10 °C is marked “B”) | TECC (AUC, 10 μM) [2]: A (a TECC value less than 12 is marked “A”)

C[C@@H](Cc1cccc(C2(C)CCCC(C)(C)CS(=O)(=O)CCc3c(c(F)cc4[nH]ccc34)[S+]([O-])c3ccc(F)c(c3)-c3nc2nn3C)n1)C(=O)O (single isomer, unassigned) [Compound 179B]
DSLS 3D (100 μM ΔT) [1]: A (an ΔTagg value less than or equal to 5 °C is marked “A”) | TECC (AUC, 10 μM) [2]: A (a TECC value less than 12 is marked “A”)
